The experiment has as its target T1, human GLP-1R (Homo sapiens, UniProt P43220).
T1 construct: host or cells: HEK293
Put plainly: GLP-1R cAMP assay (Example B1a, HTRF, 30 min at room temperature). The following applies: for EC50 Ratio: potency ratio of stereoisomer pair (less potent / more potent isomer); for potency: bridge atoms configured out of the plane or toward the reader. The format is cell-based. The procedure, abridged: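 Competitive HTRF read-out of cAMP after 30 min room-temperature stimulation, BETP absent, of human GLP-1R-HEK293 cells (1,000/well) in HEPES buffer with 500 μM IBMX and 0.1% BSA. Activation normalised to GLP-1(7-37) positive control. EC50 from 4-parameter non-linear regression.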
Background: cAMP levels reflect the balance of adenylyl cyclase and phosphodiesterase activity.

Where [1] appears, read: cAMP accumulation in HEK293 expressing human GLP-1R, no BETP, 30 min room temperature (Method B1a, compounds ID 1-609), Table 1, read-out: EC50.
The mark [2] stands for this setting: Table 1d, stereoisomer pairs, read-out: EC50.
[3] abbreviates: text to Table 1d, bridge atoms configured into the plane or away from the reader, read-out: potency (EC50).

Where two headings read alike, the source gives them in different places.

By EC50 is commonly meant the concentration needed to bring the measured effect to its halfway point.

T1 sequence (P43220 24-463): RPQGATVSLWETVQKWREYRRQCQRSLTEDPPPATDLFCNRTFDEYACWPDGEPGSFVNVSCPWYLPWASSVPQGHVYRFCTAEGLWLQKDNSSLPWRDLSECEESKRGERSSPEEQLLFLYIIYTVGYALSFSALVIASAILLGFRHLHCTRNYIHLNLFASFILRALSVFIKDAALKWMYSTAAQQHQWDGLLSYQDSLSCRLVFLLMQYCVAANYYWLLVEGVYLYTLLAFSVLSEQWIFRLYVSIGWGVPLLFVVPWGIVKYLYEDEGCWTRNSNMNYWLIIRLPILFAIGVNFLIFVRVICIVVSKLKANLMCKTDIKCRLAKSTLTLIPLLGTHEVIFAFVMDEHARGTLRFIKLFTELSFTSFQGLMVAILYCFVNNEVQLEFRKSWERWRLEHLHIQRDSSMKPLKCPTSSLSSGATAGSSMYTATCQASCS

For the compound `Cc1cc(-n2nc3c(c2-n2ccn(-c4ccc5c(cnn5C)c4F)c2=O)[C@@H]2CCC[C@H](C3)N2C(=O)c2cc3cc([C@H]4CCOC5(CC5)C4)ccc3n2[C@@]2(c3noc(=O)[nH]3)C[C@@H]2C)cc(C)c1F` [Compound 509, 3-((1S,2S)-1-(2-((4S,8R)-3-(3-(4-fluoro-1-methyl-1H-indazol-5-yl)-2-oxo-2,3-dihydro-1H-imidazol-1-yl)-2-(4-fluoro-3,5-dimethylphenyl)-4,5,6,7,8,9-hexahydro-2H-4,8-epiminocycloocta [c]pyrazole-10-carbonyl)-5-((S)-4-oxaspiro[2.5]octan-7-yl)-1H-indol-1-yl)-2-methylcyclopropyl)-1,2,4-oxadiazol-5 (4H)-one], the EC50 under setting [1] was found to be 134 nM. In the case of `Cc1cc(-n2nc3c(c2-n2ccn(-c4ccc5c(cnn5C)c4F)c2=O)[C@@H]2CC[C@H](C3)N2C(=O)c2cc3cc(N4CC(C)(C)C=CC4=O)ccc3n2[C@@]2(c3noc(=O)[nH]3)C[C@@H]2C)cc(C)c1F` [Compound 510], the EC50 under setting [1] is at least 10000 nM.

Take `Cc1cc(-n2nc3c(c2-n2ccn(-c4ccc5c(cnn5C)c4F)c2=O)C2CCC([C@H]3F)N2C(=O)c2cc3cc([C@H]4CCOC(C)(C)C4)ccc3n2[C@@]2(c3noc(=O)[nH]3)C[C@@H]2C)cc(C)c1F` (stereo partly drawn) [Compound 511, 3-[(1S,2S)-1-[5-[(4S)-2,2-dimethyltetrahydropyran-4-yl]-2-[(7R)-7-fluoro-4-(4-fluoro-3,5-dimethyl-phenyl)-3-[3-(4-fluoro-1-methyl-indazol-5-yl)-2-oxo-imidazol-1-yl]-4,5,11-triazatricyclo[6.2.1.02,6]undeca-2,5-diene-11-carbonyl]indol-1-yl]-2-methyl-cyclopropyl]-4H-1,2,4-oxadiazol-5-one]: the EC50 under setting [1] came out at 588 nM. As for `Cc1cc(-n2nc3c(c2-n2ccn(-c4ccc5c(cnn5C)c4F)c2=O)[C@@H]2CC[C@H]([C@H]3F)N2C(=O)c2cc3cc([C@H]4CCOC(C)(C)C4)ccc3n2[C@@]2(c3noc(=O)[nH]3)C[C@@H]2C)cc(C)c1F` [Compound 512, 3-[(1S,2S)-1-[5-[(4S)-2,2-dimethyltetrahydropyran-4-yl]-2-[(1S,7R,8R)-7-fluoro-4-(4-fluoro-3,5-dimethyl-phenyl)-3-[3-(4-fluoro-1-methyl-indazol-5-yl)-2-oxo-imidazol-1-yl]-4,5,11-triazatricyclo[6.2.1.02,6]undeca-2,5-diene-11-carbonyl]indol-1-yl]-2-methyl-cyclopropyl]-4H-1,2,4-oxadiazol-5-one], the “EC50 Ratio” value (Table 1d) was above 83. The concentration for a half-maximal effect (EC50) was 226 nM under setting [2], 226 nM under setting [1] and below 1000 nM under setting [3]. As for `Cc1cc(-n2nc3c(c2-n2ccn(-c4ccc5c(cnn5C)c4F)c2=O)[C@H]2CC[C@@H]([C@@H]3F)N2C(=O)c2cc3cc([C@H]4CCOC(C)(C)C4)ccc3n2[C@@]2(c3noc(=O)[nH]3)C[C@@H]2C)cc(C)c1F` [Compound 513, 3-[(1S,2S)-1-[5-[(4S)-2,2-dimethyltetrahydropyran-4-yl]-2-[(1R,7S,8S)-7-fluoro-4-(4-fluoro-3,5-dimethyl-phenyl)-3-[3-(4-fluoro-1-methyl-indazol-5-yl)-2-oxo-imidazol-1-yl]-4,5,11-triazatricyclo[6.2.1.02,6]undeca-2,5-diene-11-carbonyl]indol-1-yl]-2-methyl-cyclopropyl]-4H-1,2,4-oxadiazol-5-one], the EC50 under setting [1] is at least 10000 nM. Moreover, the potency entry (text to Table 1d) was “little or no potency”. With `Cc1cc(-n2nc3c(c2-n2ccn(-c4ccc5c(cnn5C)c4F)c2=O)[C@H]2CC[C@@H]([C@H]3F)N2C(=O)c2cc3cc([C@H]4CCOC(C)(C)C4)ccc3n2[C@@]2(c3noc(=O)[nH]3)C[C@@H]2C)cc(C)c1F` [Compound 514, 3-[(1S,2S)-1-[5-[(4S)-2,2-dimethyltetrahydropyran-4-yl]-2-[(1R,7R,8S)-7-fluoro-4-(4-fluoro-3,5-dimethyl-phenyl)-3-[3-(4-fluoro-1-methyl-indazol-5-yl)-2-oxo-imidazol-1-yl]-4,5,11-triazatricyclo[6.2.1.02,6]undeca-2,5-diene-11-carbonyl]indol-1-yl]-2-methyl-cyclopropyl]-4H-1,2,4-oxadiazol-5-one], the EC50 under setting [1] was at least 10000 nM. Besides, the potency result (text to Table 1d) was “little or no potency”. In the case of `Cc1cc(-n2nc3c(c2-n2ccn(-c4ccc5c(cnn5C)c4F)c2=O)[C@@H]2CC[C@H]([C@@H]3F)N2C(=O)c2cc3cc([C@H]4CCOC(C)(C)C4)ccc3n2[C@@]2(c3noc(=O)[nH]3)C[C@@H]2C)cc(C)c1F` [Compound 515, 3-[(1S,2S)-1-[5-[(4S)-2,2-dimethyltetrahydropyran-4-yl]-2-[(1S,7S,8R)-7-fluoro-4-(4-fluoro-3,5-dimethyl-phenyl)-3-[3-(4-fluoro-1-methyl-indazol-5-yl)-2-oxo-imidazol-1-yl]-4,5,11-triazatricyclo[6.2.1.02,6]undeca-2,5-diene-11-carbonyl]indol-1-yl]-2-methyl-cyclopropyl]-4H-1,2,4-oxadiazol-5-one], where the note is “Table 1d”, the “EC50 Ratio” value is given as above 44. For the same compound, the EC50 reads like this: under setting [2], 120 nM; under setting [1], 120 nM; under setting [3], below 1000 nM.

With `Cc1cc(-n2nc3c(c2-n2ccn(-c4ccc5c(cnn5C)c4F)c2=O)[C@@H]2CC[C@H](C3)N2C(=O)c2cc3cc([C@@H]4CCOC5(CC5)C4)ccc3n2[C@]2(c3noc(=O)[nH]3)C[C@H]2C)cc(C)c1F` [Compound 516, 3-[(1R,2R)-1-[2-[(1S,8R)-4-(4-fluoro-3,5-dimethyl-phenyl)-3-[3-(4-fluoro-1-methyl-indazol-5-yl)-2-oxo-imidazol-1-yl]-4,5,11-triazatricyclo[6.2.1.02,6]undeca-2,5-diene-11-carbonyl]-5-[(7R)-4-oxaspiro[2.5]octan-7-yl]indol-1-yl]-2-methyl-cyclopropyl]-4H-1,2,4-oxadiazol-5-one], the EC50 under setting [1] was at least 10000 nM. For `Cc1cc(-n2nc3c(c2-n2ccn(-c4ccc5c(cnn5C)c4F)c2=O)[C@H]2CC[C@@H](C3)N2C(=O)c2cc3cc([C@@H]4CCOC5(CC5)C4)ccc3n2[C@]2(c3noc(=O)[nH]3)C[C@H]2C)cc(C)c1F` [Compound 517, 3-[(1R,2R)-1-[2-[(1R,8S)-4-(4-fluoro-3,5-dimethyl-phenyl)-3-[3-(4-fluoro-1-methyl-indazol-5-yl)-2-oxo-imidazol-1-yl]-4,5,11-triazatricyclo[6.2.1.02,6]undeca-2,5-diene-11-carbonyl]-5-[(7R)-4-oxaspiro[2.5]octan-7-yl]indol-1-yl]-2-methyl-cyclopropyl]-4H-1,2,4-oxadiazol-5-one], the EC50 under setting [1] was at least 10000 nM. On the same count and under the same terms, under `Cc1cc(-n2nc3c(c2-n2ccn(-c4ccc5c(cnn5C)c4F)c2=O)[C@H](C)N(C(=O)c2cc4cc([C@H]5CCOC(C)(C)C5)ccc4n2[C@@]2(c4noc(=O)[nH]4)C[C@@H]2C)CCC3)cc(C)c1F` [Compound 518, 3-[(1S,2S)-1-[5-[(4S)-2,2-dimethyltetrahydropyran-4-yl]-2-[(4S)-2-(4-fluoro-3,5-dimethyl-phenyl)-3-[3-(4-fluoro-1-methyl-indazol-5-yl)-2-oxo-imidazol-1-yl]-4-methyl-4,6,7,8-tetrahydropyrazolo[4,3-c]azepine-5-carbonyl]indol-1-yl]-2-methyl-cyclopropyl]-4H-1,2,4-oxadiazol-5-one] stands 73.5 nM; under `Cc1cc(-n2nc3c(c2-n2ccn(-c4ccc5c(cnn5C)c4F)c2=O)[C@@H]2CC[C@H](C3)N2C(=O)c2cc3cc([C@H]4CCOC5(CC5)C4)ccc3n2[C@]2(c3noc(=O)[nH]3)C[C@H]2C)cc(C)c1F` [Compound 519, 3-[(1R,2R)-1-[2-[(1S,8R)-4-(4-fluoro-3,5-dimethyl-phenyl)-3-[3-(4-fluoro-1-methyl-indazol-5-yl)-2-oxo-imidazol-1-yl]-4,5,11-triazatricyclo[6.2.1.02,6]undeca-2,5-diene-11-carbonyl]-5-[(7S)-4-oxaspiro[2.5]octan-7-yl]indol-1-yl]-2-methyl-cyclopropyl]-4H-1,2,4-oxadiazol-5-one], at least 10000 nM; under `Cc1cc(-n2nc3c(c2-n2ccn(-c4ccc5c(cnn5C)c4F)c2=O)[C@H]2CC[C@@H](C3)N2C(=O)c2cc3cc([C@H]4CCOC5(CC5)C4)ccc3n2[C@]2(c3noc(=O)[nH]3)C[C@H]2C)cc(C)c1F` [Compound 520, 3-[(1R,2R)-1-[2-[(1R,8S)-4-(4-fluoro-3,5-dimethyl-phenyl)-3-[3-(4-fluoro-1-methyl-indazol-5-yl)-2-oxo-imidazol-1-yl]-4,5,11-triazatricyclo[6.2.1.02,6]undeca-2,5-diene-11-carbonyl]-5-[(7S)-4-oxaspiro[2.5]octan-7-yl]indol-1-yl]-2-methyl-cyclopropyl]-4H-1,2,4-oxadiazol-5-one], at least 10000 nM. Consider `Cc1cc(-n2nc3c(c2-n2ccn(-c4ccc5cnncc5c4F)c2=O)CN(C(=O)c2cc4cc([C@H]5CCOC(C)(C)C5)ccc4n2[C@@]2(c4noc(=O)[nH]4)C[C@@H]2C)CCC3)cc(C)c1F` [Compound 521, 3-[(1S,2S)-1-[5-[(4S)-2,2-dimethyltetrahydropyran-4-yl]-2-[2-(4-fluoro-3,5-dimethyl-phenyl)-3-[3-(5-fluorophthalazin-6-yl)-2-oxo-imidazol-1-yl]-4,6,7,8-tetrahydropyrazolo[4,3-c]azepine-5-carbonyl]indol-1-yl]-2-methyl-cyclopropyl]-4H-1,2,4-oxadiazol-5-one], for which the half-maximal effective concentration (EC50) under setting [1] was 197 nM. On the same count and under the same terms, under `Cc1cc(-n2nc3c(c2-n2ccn(-c4ccc5c(cnn5C)c4F)c2=O)C2CCC(CC3)N2C(=O)c2cc3cc([C@H]4CCOC(C)(C)C4)ccc3n2[C@@]2(c3noc(=O)[nH]3)C[C@@H]2C)cc(C)c1F` (stereo partly drawn) [Compound 522, 3-[(1S,2S)-1-[5-[(4S)-2,2-dimethyltetrahydropyran-4-yl]-2-[4-(4-fluoro-3,5-dimethyl-phenyl)-3-[3-(4-fluoro-1-methyl-indazol-5-yl)-2-oxo-imidazol-1-yl]-4,5,12-triazatricyclo[7.2.1.02,6]dodeca-2,5-diene-12-carbonyl]indol-1-yl]-2-methyl-cyclopropyl]-4H-1,2,4-oxadiazol-5-one] stands at least 10000 nM.

For the origin of these results see patent US12617783B2, “Heterocyclic GLP-1R agonists” (BIOMEA FUSION, INC., priority 2024, dated 2026).
